# System: T1, LkAlt1
# T1 construct: ORF amplified from genomic DNA into pET-28a(+) (NheI/XhoI), His-tagged, E. coli Rosetta2(DE3), Ni-NTA; tag removal not mentioned; about 50 kDa on SDS-PAGE
# Assay: initial velocities at […] nm (lactate dehydrogenase/NADH coupled), global ping-pong fit
# Type: biochemical, Lachancea kluyveri
# Details: alanine varied 1-20 mM, α-ketoglutarate 0.05-1.50 mM; Tris-HCl about pH 7, 25°C; pyridoxal 5'-phosphate; ka/kb assigned to substrates by concentration ranges and text
SMILES,ka [mM],Km [µM]
C[C@H](N)C(=O)O [alanine],4.88,
O=C(O)CCC(=O)C(=O)O [α-ketoglutarate],,220
